Experimental data from the supplement of paper PMC12317010.

Assay: collision cross section in nitrogen (drift tube, single-field); higher = larger gas-phase ion size
[1] = ion type: [M+H], ion source: APCI, ion mode: Positive
[2] = ion type: [M+H], ion source: ESI, ion mode: Positive
[3] = ion type: [M+Na], ion source: ESI, ion mode: Positive
[4] = ion type: [M-H], ion source: ESI, ion mode: Negative
[5] = ion source: APCI, ion mode: Positive, ion type: [M]+ (permanent cation)
[6] = ion source: ESI, ion mode: Positive, ion type: [M]+ (permanent cation)
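Also: chemical standards at 10 µM analysed by drift tube IMS-QTOF MS in about 3.95 torr nitrogen, mean of duplicate injections differing ≤1%, mass error below 10 ppm.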

Row | SMILES | collision cross section in nitrogen [1] [Å²] | collision cross section in nitrogen [2] [Å²] | collision cross section in nitrogen [3] [Å²] | collision cross section in nitrogen [4] [Å²] | other results
1 | O=C1C[C@@H]2OCC=C3CN4CC[C@]56c7ccccc7N1[C@H]5[C@H]2[C@H]3C[C@H]46 [Strychnine] | 172 | 175.2 | – | – | –
2 | OC[C@H]1O[C@H](O[C@]2(CCl)O[C@H](CCl)[C@@H](O)[C@@H]2O)[C@H](O)[C@@H](O)[C@H]1Cl [Sucralose] | – | – | 179.7 | 174.5 | –
3 | CC(=O)OC[C@H]1O[C@@](COC(C)=O)(O[C@H]2O[C@H](COC(C)=O)[C@@H](OC(C)=O)[C@H](OC(C)=O)[C@H]2OC(C)=O)[C@@H](OC(C)=O)[C@@H]1OC(C)=O [Sucrose octaacetate] | – | – | 238.1 | – | –
4 | NS(=O)(=O)O [Sulfamic acid] | – | – | – | 112 | –
5 | O=C(O)c1cc(N=Nc2ccc(S(=O)(=O)Nc3ccccn3)cc2)ccc1O [Sulfasalazine] | 203.9 | 203.6 | – | 197.5 | –
6 | Nc1ccc(S(=O)(=O)Nc2nccs2)cc1 [Sulfathiazole sodium] | 153.3 | 153.6 | 167.2 | 154.1 | –
7 | Nc1ccc(S(=O)(=O)Nc2nccs2)cc1 [Sulfathiazole] | 153.5 | 153.9 | 167.5 | 154.3 | –
8 | Cc1nn(-c2cc(NS(C)(=O)=O)c(Cl)cc2Cl)c(=O)n1C(F)F [Sulfentrazone] | – | 178.2 | 184 | 182.4 | –
9 | O=C(O)CC(C(=O)O)S(=O)(=O)O (stereo not drawn) [Sulfosuccinic acid] | – | – | – | 124.5 | –
10 | CCOP(=S)(OCC)OP(=S)(OCC)OCC [Sulfotep] | – | – | 172.2 | – | –
11 | CC1=C(CC(=O)O)c2cc(F)ccc2/C1=C\c1ccc(S(C)=O)cc1 (stereo not drawn) [Sulindac] | – | 196.2 | – | – | –
12 | COc1cc(O)c(C(=O)c2ccccc2)cc1S(=O)(=O)O [Sulisobenzone hydrate] | – | – | – | 167.7 | –
13 | COc1cc(O)c(C(=O)c2ccccc2)cc1S(=O)(=O)O [Sulisobenzone] | – | – | – | 168.1 | –
14 | Cc1cc(CCC(=O)OCC(C)(C)C2OCC3(CO2)COC(C(C)(C)COC(=O)CCc2cc(C)c(O)c(C(C)(C)C)c2)OC3)cc(C(C)(C)C)c1O (stereo not drawn) [Sumilizer GA 80] | 268.1 | – | 261.6 | 268.7 | collision cross section in nitrogen (ion type: [M+], ion source: APCI, ion mode: Positive): 269.1 Å²
15 | CCN(CC)CCNC(=O)c1c(C)[nH]c(/C=C2\C(=O)Nc3ccc(F)cc32)c1C [Sunitinib malate] | – | 207 | 214.3 | – | –
16 | CCc1c(C(=O)NN2CCCCC2)nn(-c2ccc(Cl)cc2Cl)c1-c1ccc(Br)cc1 [Surinabant] | 224.8 | 224.1 | 232.1 | 226.6 | –
17 | CCCCC1(COC(=O)CCC(=O)O)C(=O)N(c2ccccc2)N(c2ccccc2)C1=O [Suxibuzone] | 201.3 | 200.8 | 204.5 | – | –
18 | COC(=O)Nc1ccc(Cl)c(Cl)c1 [Swep] | – | – | – | 140.9 | –
19 | Nc1c2c(nc3ccccc13)CCCC2 [Tacrine] | – | 142.7 | – | 145.4 | –
20 | C[C@]1(Cn2ccnn2)[C@H](C(=O)O)N2C(=O)C[C@H]2S1(=O)=O [Tazobactam sodium] | – | 161.8 | – | 157.7 | –
21 | CC(C)(C)C(O)(CCc1ccc(Cl)cc1)Cn1cncn1 (stereo not drawn) [Tebuconazole] | 167.5 | 166.8 | 172.5 | – | –
22 | CCc1ccc(C(=O)NN(C(=O)c2cc(C)cc(C)c2)C(C)(C)C)cc1 [Tebufenozide] | – | – | 201.3 | 193.6 | –
23 | CCc1nn(C)c(C(=O)NCc2ccc(C(C)(C)C)cc2)c1Cl [Tebufenpyrad] | 193.9 | 193 | 193.2 | 194 | –
24 | CCOP(=S)(Oc1cnc(C(C)(C)C)nc1)OC(C)C (stereo not drawn) [Tebupirimfos] | 177.4 | 177.4 | – | – | –
25 | CNC(=O)N(C)c1nnc(C(C)(C)C)s1 [Tebuthiuron] | 150.4 | 150.5 | 162.9 | – | –
26 | O=C(NC(=O)c1c(F)cccc1F)Nc1cc(Cl)c(F)c(Cl)c1F [Teflubenzuron] | – | – | – | 178.7 | –
27 | CC1CN(c2cc3c(cc2F)c(=O)c(C(=O)O)cn3-c2ccc(F)cc2F)CCN1 (stereo not drawn) [Temafloxacin] | – | 193 | 211.3 | 209.4 | –

Row | SMILES | collision cross section in nitrogen [1] [Å²] | collision cross section in nitrogen [2] [Å²] | collision cross section in nitrogen [3] [Å²] | collision cross section in nitrogen [4] [Å²] | other results
28 | CS(=O)(=O)c1ccc(C(=O)C2C(=O)CCCC2=O)c(Cl)c1COCC(F)(F)F [Tembotrione] | – | 189.3 | 185.1 | 188.5 | –
29 | COP(=S)(OC)Oc1ccc(Sc2ccc(OP(=S)(OC)OC)cc2)cc1 [Temephos] | 189.4 | 189.5 | 196.3 | – | –
30 | CCC(=NOC/C=C/Cl)C1=C(O)CC(C2CCOCC2)CC1=O (stereo not drawn) [Tepraloxydim] | – | 185.8 | 191.1 | 181.1 | –
31 | Cc1[nH]c(=O)n(C(C)(C)C)c(=O)c1Cl [Terbacil] | – | – | – | 144.9 | –
32 | CNC(=O)Oc1c(C(C)(C)C)cc(C)cc1C(C)(C)C [Terbucarb] | – | – | 176.8 | – | –
33 | CCOP(=S)(OCC)SCS(=O)(=O)C(C)(C)C [Terbufos sulfone] | – | – | 171.3 | – | –
34 | CCNc1nc(NC(C)(C)C)nc(OC)n1 [Terbumeton] | 154.8 | 154.9 | 172.2 | – | –
35 | CCNc1nc(NC(C)(C)C)nc(SC)n1 [Terbutryn] | 159.9 | 159.4 | – | – | –
36 | CCNc1nc(Cl)nc(NC(C)(C)C)n1 [Terbutylazine] | 153.8 | 153.8 | – | – | –
37 | O=C(O)c1ccc(C(=O)O)cc1 [Terephthalic acid] | – | – | – | 134 | –
38 | CC(c1cc(C(C)(C)C)cc(C(C)(C)C)c1O)c1cc(C(C)(C)C)cc(C(C)(C)C)c1O [Tetrabutyl ethylidenebisphenol] | – | – | – | 224.4 | –
39 | CCCC[N+](CCCC)(CCCC)CCCC [Tetrabutylammonium bromide] | – | – | – | – | collision cross section in nitrogen [5]: 167.2 Å²; collision cross section in nitrogen [6]: 168 Å²
40 | CCCC[P+](CCCC)(CCCC)CCCC [Tetrabutylphosphonium chloride] | – | – | – | – | collision cross section in nitrogen [5]: 172.4 Å²
41 | O=C(O)Cc1cc(I)c(Oc2cc(I)c(O)c(I)c2)c(I)c1 [Tetrac] | – | – | – | 203.1 | –
42 | Oc1c(O)c(Cl)c(Cl)c(Cl)c1Cl [Tetrachlorocatechol] | – | – | – | 135.1 | –
43 | O=C1OC(=O)c2c(Cl)c(Cl)c(Cl)c(Cl)c21 [Tetrachlorophthalic anhydride] | – | – | – | 158.1 | –
44 | FC(F)C(F)(F)OCC(Cn1cncn1)c1ccc(Cl)cc1Cl (stereo not drawn) [Tetraconazole] | 177.6 | 176.6 | – | – | –
45 | CCCCCCCCCCCCCC(=O)O [Tetradecanoic acid] | – | – | – | 161.8 | –
46 | CCCCCCCCCCCCCC[n+]1ccccc1 [Tetradecylpyridinium bromide] | – | – | – | – | collision cross section in nitrogen [5]: 185.4 Å²; collision cross section in nitrogen [6]: 185.9 Å²
47 | CCCCCCCCCCCCCC[N+](C)(C)C [Tetradonium bromide] | – | – | – | – | collision cross section in nitrogen [5]: 185.1 Å²; collision cross section in nitrogen [6]: 185.7 Å²
48 | CCOP(=O)(CCP(=O)(OCC)OCC)OCC [Tetraethyl ethylenebisphosphonate] | – | 161.1 | 172.3 | – | –
49 | CC[N+](CC)(CC)CC [Tetraethylammonium bromide] | – | – | – | – | collision cross section in nitrogen [6]: 125.7 Å²
50 | CCCCC(CC)C(=O)OCCOCCOCCOCCOC(=O)C(CC)CCCC (stereo not drawn) [Tetraethylene glycol di(2-ethylhexanoate)] | – | – | 214.4 | – | –
51 | C=C(C)C(=O)OCCOCCOCCOCCOC(=O)C(=C)C [Tetraethyleneglycol dimethacrylate] | 171.2 | – | 176.9 | – | –
52 | NCCNCCNCCNCCN [Tetraethylenepentamine] | – | – | 148.5 | – | –
53 | CCN(CC)C(=S)SSC(=S)N(CC)CC [Tetraethylthiuram disulfide] | – | – | 173.2 | – | –
